In BindingDB's records for PubMed 2078271 (Sorbonne University, 1990) one finds Ki data, which are given here for 13 compounds.

What is called Ki is the equilibrium dissociation constant of an inhibitor or competing ligand from its target. Low values mean a stronger hold on the target, high ones a looser hold on the target.

The target of the test is T1, 5-hydroxytryptamine receptor 1A (Homo sapiens, UniProt P08908).
T1 sequence (P08908 whole entry): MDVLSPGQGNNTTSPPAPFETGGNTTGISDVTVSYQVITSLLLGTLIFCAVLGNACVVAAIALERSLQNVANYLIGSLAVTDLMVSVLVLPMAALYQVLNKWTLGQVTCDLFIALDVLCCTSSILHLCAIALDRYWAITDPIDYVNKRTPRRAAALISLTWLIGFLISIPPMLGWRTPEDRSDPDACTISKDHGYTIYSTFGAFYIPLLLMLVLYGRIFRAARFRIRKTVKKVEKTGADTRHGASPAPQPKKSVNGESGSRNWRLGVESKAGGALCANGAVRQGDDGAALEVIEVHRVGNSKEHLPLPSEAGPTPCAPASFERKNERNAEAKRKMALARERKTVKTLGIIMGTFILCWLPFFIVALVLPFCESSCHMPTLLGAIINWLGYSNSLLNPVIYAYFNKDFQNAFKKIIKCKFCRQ
Regarding `COc1ccccc1N1CCN(CCN(C(=O)c2ccc(I)cc2)c2ccccn2)CC1`, the affinity, expressed as Ki, was 0.32 nM.
Then `CC(C)(C)NCC(O)COc1ccccc1C1CCCC1` (single isomer, unassigned; (-)) [NSC_37464], with 8 nM.
The compound `CC(C)(C)NCC(O)COc1cccc2c1SCCC2` (single isomer, unassigned; (-)) [TERTATOLOL(-)] registered a Ki of 10 nM.
Then `O=C1c2ccccc2S(=O)(=O)N1CCCCN1CCN(c2ncccn2)CC1` [1,1-Dioxo-2-[4-(4-pyrimidin-2-yl-piperazin-1-yl)-butyl]-1,2-dihydro-1lambda*6*-benzo[d]isothiazol-3-one], with 10 nM.
In the case of `COc1c(O)c(O)cc2c1CC(N)CC2` (stereo not drawn) [5-OME-3-ADTN], the affinity, expressed as Ki, was 1 nM. Against the preceding compound, the Ki is about 10-fold lower.
`FC(F)(F)c1cccc(C2=CCN(CCc3ccc4ccccc4c3)CC2)c1` [CAS_90494-79-4] had a Ki of 2 nM.
Then `Clc1cnn(CCCCN2CCN(c3ncccn3)CC2)c1` [CAS_132449-46-8], with 50 nM; and `COC(=O)c1cc2c(N3CCN(CCCCN4C(=O)c5ccccc5S4(=O)=O)CC3)cccc2[nH]1` [CAS_141533-35-9], with 0.7 nM; and `O=C(NCCN1CCN(c2cccc3c2OCC(CO)O3)CC1)c1ccc(F)cc1` (stereo not drawn) [FLESINOXAN], with 3 nM.
With `CCCN(CCC)CCc1c[nH]c2ccc(C(N)=O)cc12` [NN-DIPROP-5-CT], the affinity corresponds to a Ki of 0.2 nM. This Ki is about 15-fold lower than that of the compound before.
For `CCCN(CCCCN1C(=O)CC2(CCCC2)CC1=O)C1COc2cccc(OC)c2C1` (stereo not drawn) [NSC_121851] the value was 0.2 nM; for `COc1ccccc1N1CCN(CCCNc2c(C)c(=O)n(C)c(=O)n2C)CC1` [Urapidil-5-methyl], 0.35 nM.
For `COc1ccccc1N1CCN(C[C@@H](C(=O)NC(C)(C)C)c2ccccc2)CC1` [WAY 100135], the affinity, expressed as Ki, was 20 nM.
